Data set [1] can be described thus: in vitro. The format is in vitro ADME. Particulars: human, s9, pH 7.4. The procedure:
Duplicate aliquots of test compound or positive control substrate (GS-7340) were added to PMSF-free Intestinal S9 fractions diluted with 100 mM phosphate buffered saline, pH 7.4, to obtain a protein concentration of 1.0 mg/mL. The S9 metabolic reactions were initiated by the addition of the substrates to the S9 reaction mixture to a final concentration of 2 μM. At 0, 10, 20, 30, 60 and 120 min, 25 μL aliquots of the reaction mixture were transferred to plates containing 225 μl of IS/Q solution. After quenching, the plates were centrifuged at 3000×g for 30 minutes, and 150 μL aliquots of each supernatant were diluted with 150 μL water. Aliquots (10 μL) of the diluted supernatant were analyzed on a Thermo Q-Exactive mass spectrometer as described below. Quantification of test compounds and controls was performed by analyte/internal standard peak area ratio (PAR) values measured on a Thermo Q-Exactive mass spectrometer coupled to a Dionex UltiMate 3000 HPLC with a Leap Technologies HTC PAL autosampler. The column used was a Thermo Hypersil GOLD (1.9 μm particle size, 2.1×50 mm). Mobile phase A consisted of […] formic acid in water. Mobile phase B consisted of 0.1% (v/v) formic acid in acetonitrile. Elution of analytes was achieved by a series of linear gradients of acetonitrile in water containing 0.1% (v/v) formic acid. The mass spectrometer was calibrated on a weekly basis and mass tolerance of 5 ppm was used.

Data set [2] is classed as in vitro ADME. As to conditions: 2 μM. The procedure:
Duplicate aliquots of plasma were warmed to 37° C. and the metabolic reactions initiated by the addition of test compound (6 μL of 0.1 mM DMSO stock) or plasma stability standard (GS-7340) to obtain a final substrate concentration of 2 μM. At 0.05, 0.5, 1, 2, 3 and 4 hr, 25 μL aliquots of the reaction mixture were transferred to plates containing 225 μl of IS/Q quenching solution. After quenching, the plates were centrifuged at 3000×g for 30 minutes, and 150 μL supernatant was diluted with 150 μL water. Aliquots (10 μL) of the diluted supernatant were analyzed on a Thermo Q-Exactive mass spectrometer as described below. Quantification of test compounds and controls was performed by analyte/internal standard peak area ratio (PAR) values measured on a Thermo Q-Exactive mass spectrometer coupled to a Dionex UltiMate 3000 HPLC with a Leap Technologies HTC PAL autosampler. The column used was a Thermo Hypersil GOLD (1.9 μm particle size, 2.1×50 mm). Mobile phase A consisted of […] formic acid in water. Mobile phase B consisted of 0.1% (v/v) formic acid in acetonitrile. Elution of analytes was achieved by a series of linear gradients of acetonitrile in water containing 0.1% (v/v) formic acid. The mass spectrometer was calibrated on a weekly basis and mass tolerance of 5 ppm was used.

The subject of data set [3] is Caco-2 cells (clone C2BBel). Description: CACO-2 permeability. Type of data set: in vitro ADME. Particulars: donor pH 6.5, receiver pH 7.4; for DM Caco2 A to B: forward (A to B); for DM Caco2 B to A: reverse (B to A). As for the experimental part: Pre-plated Caco-2 cells (clone C2BBel) were obtained from Sigma-Aldrich, Inc. (Atlanta, GA). Cell monolayers were grown to confluence on collagen-coated, microporous, polycarbonate membranes in 24-well transwell plates for 21 days. The permeability assay buffer in donor wells was Hanks' balanced salt solution (HBSS) containing 10 mM HEPES and 15 mM glucose at a pH of 6.5 containing 200 μM BNPP. The receiver wells used HBSS buffer containing 10 mM HEPES and 15 mM glucose at a pH of 7.4 and supplemented with 1% BSA. After an initial equilibration with transport buffer, TEER values were read to test membrane integrity. The experiment was started by the addition of buffers containing test compounds, 200 μl and 1000 μl in the apical and basolateral chamber, respectively. At 0- and 2-hour post dose, 10 μL was sampled from donor compartment and was immediately diluted in 190 μL of 20% methanol. At 1 and 2 hours post dose, 100 μl of solution was taken from the receiver compartments and was immediately diluted in 100 μl of 20% methanol. Removed buffer was replaced with fresh buffer and a correction was applied to all calculations for the removed material. Each compound was tested in 2 separate replicate wells for each condition. All samples were then extracted with 400 μl 100% acetonitrile with internal standard to precipitate protein. Cells were dosed on the apical or basolateral side to determine forward (A to B) and reverse (B to A) permeability. To test for non-specific binding and compound instability, the total amount of drug was quantitated at the end of the experiment and compared to the material present in the original dosing solution as a percent recovery. Formation of the parent compound (GS-441524; Reference Compound A) was monitored in assay wells dosed with the prodrug. Samples were analyzed by LC-MS/MS.
In general terms: Caco-2 cells form a polarised layer with tight junctions and transporters.

Data set [4] has as its system Respiratory syncytial virus recombinant with luciferase (RSV-Luc5). The experiment in a line: microbe, parasite or virus in culture. Type of data set: cell-based. Particulars: human respiratory syncytial virus, NHBE, 72 h, read-out: RSV NHBE EC50 (nM).
Data set [5] concerns SARS Coronavirus 2 recombinant with NanoLuc (SARS-CoV2-NLuc). The experiment in a line: organism not typed. As to conditions: 48 h. The format is cell-based.
Data set [6] in a line: in vitro. Type of data set: cell-based. As to conditions: human. The procedure: Cytotoxicity of the compounds was determined in uninfected cells using the cell viability reagent in a similar fashion as described before for other cell types (Cihlar et al., Antimicrob Agents Chemother. 2008, 52(2):655-65). HEp-2 (1.5×10^3 cells/well) and MT-4 (2×10^3 cells/well) cells were plated in 384-well plates and incubated with the appropriate medium containing 3-fold serially diluted compound ranging from 15 nM to 100,000 nM. Cells were cultured for 4-5 days at 37° C. Following the incubation, the cells were allowed to equilibrate to 25° C., and cell viability was determined by adding Cell-Titer Glo viability reagent. The mixture was incubated for 10 min, and the luminescence signal was quantified using an Envision plate reader. Untreated cell and cells treated at 2 μM puromycin (Sigma, St. Louis, MO) serve as […] cell viability control, respectively. The percent of cell viability was calculated for each tested compound concentration relative to the 0% and 100% controls and the CC50 value was determined by non-linear regression as a compound concentration reducing the cell viability by […].

Another data set in a line: physchem. The format is physicochemical. As to conditions: pH 7, aqueous buffer, thermodynamic from solid. As for the experimental part:
The aqueous solubility of compounds over a time of 24 hours was assessed. Solubility was determined at ambient temperature in a 50 mM phosphate buffered pH7 solution with 150 mM NaCl (to achieve isotonicity). Solids were added to the buffered solution in 1.5-mL Eppendorf tubes, vortexed for 1 minute, then agitated for 24 hours in an Eppendorf ThermoMixer C. To determine concentration in solution, the suspensions were centrifuged for 15 min at 15,000 rpm. Supernatants were diluted to a volume of 1 mL with 30:70 v/v acetonitrile:water. All diluted supernatants were analyzed by UPLC using a Waters Acquity UPLC with a PDA UV detector.

Data set [7] is described as follows: in vitro. Type of data set: in vitro ADME. Particulars: human, s9, pH 7.4. As for the experimental part:
Duplicate aliquots of test compound or positive control substrate (GS-7340) were added to S9 stock diluted with 100 mM potassium phosphate buffer, pH 7.4, to obtain a protein concentration of 2.4 mg/mL. The S9 metabolic reactions were initiated by the addition of the substrates to the S9 reaction mixture to a final concentration of 2 μM. At 2, 12, 25, 45, 65 and 90 min, 25 μL aliquots of the reaction mixture were transferred to plates containing 225 μl of IS/Q solution. After quenching, the plates were centrifuged at 3000×g for 30 minutes, and 150 μL aliquots of each supernatant were diluted with 150 μL water. Aliquots (10 μL) of the diluted supernatant were analyzed on a Thermo Q-Exactive mass spectrometer as described below. Quantification of test compounds and controls was performed by analyte/internal standard peak area ratio (PAR) values measured on a Thermo Q-Exactive mass spectrometer coupled to a Dionex UltiMate 3000 HPLC with a Leap Technologies HTC PAL autosampler. The column used was a Thermo Hypersil GOLD (1.9 μm particle size, 2.1×50 mm). Mobile phase A consisted of […] formic acid in water. Mobile phase B consisted of 0.1% (v/v) formic acid in acetonitrile. Elution of analytes was achieved by a series of linear gradients of acetonitrile in water containing 0.1% (v/v) formic acid. The mass spectrometer was calibrated on a weekly basis and mass tolerance of 5 ppm was used.
The source holds these as a separate data set.

Converted amounts (≈) assume the structure as drawn.
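For CC50 in this document: uninfected MT-4 cells over 4-5 days by CellTiter-Glo.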

In general, half-life refers to the time in which the quantity being followed falls by half. The low end stands for fast loss, the high end for slow loss. One may read the EC50 as the concentration needed to bring the measured effect to its halfway point. For orientation: CC50 means the concentration at which the toxic effect on the cells reaches its halfway point. By solubility (thermodynamic) is commonly meant the concentration in solution at equilibrium with solid. Take `COC(=O)c1cn(C(=O)OC[C@H]2O[C@@](C#N)(c3ccc4c(N)ncnn34)[C@H](O)[C@@H]2O)c2ccccc12` [Compound 1, O1-[[(2R,3S,4R,5R)-5-(4-aminopyrrolo[2,1-f][1,2,4]triazin-7-yl)-5-cyano-3,4-dihydroxy-tetrahydrofuran-2-yl]methyl]O3-methyl indole-1,3-dicarboxylate]: in the data set “in vitro [1]”, the half-life at 2 μM turned out to be 2.05 h. Also, the “STA Human Plasma 37” value in data set [2] is 645.34. Also, in data set [3], the “DM Caco2 A to B” value is recorded as 0.69 and the “DM Caco2 B to A” value stood at 12.34. The EC50 in data set [4] was found to be 5590 nM. Besides, in data set [5], the EC50 was 4.73 µM. This molecule gave a CC50 in the data set “in vitro [6]” of more than 50 µM. The solubility (thermodynamic) at 24 h in “physchem” was determined as 100 µg/mL (≈ 203 µM).

In turn, `N#C[C@@]1(c2ccc3c(N)ncnn23)O[C@H](COC(=O)n2cc(C(=O)OC3CCOCC3)c3ccccc32)[C@@H](O)[C@H]1O` [Compound 2, O1-[[(2R,3S,4R,5R)-5-(4-aminopyrrolo[2,1-f][1,2,4]triazin-7-yl)-5-cyano-3,4-dihydroxy-tetrahydrofuran-2-yl]methyl]O3-tetrahydropyran-4-yl indole-1,3-dicarboxylate] came in with a half-life at 2 μM in “in vitro [1]” of 7.93 h. For the same molecule, in data set [2], the “STA Human Plasma 37” value worked out at 1055.4. In data set [3], the “DM Caco2 A to B” value was found to be 0.33 and the “DM Caco2 B to A” value is reported as 13.49. For the same molecule, in data set [4], the EC50 was determined as 14100 nM. Also, in data set [5], the EC50 came out at 5.52 µM. The molecule further gave a CC50 in the data set “in vitro [6]” of more than 50 µM. The thermodynamic solubility at 24 h in “physchem” turned out to be 140 µg/mL (≈ 249 µM).

For `COC(=O)[C@H]1COC(=O)N1C(=O)OC[C@H]1O[C@@](C#N)(c2ccc3c(N)ncnn23)[C@H](O)[C@@H]1O` [Compound 5, O3-[[(2R,3S,4R,5R)-5-(4-aminopyrrolo[2,1-f][1,2,4]triazin-7-yl)-5-cyano-3,4-dihydroxy-tetrahydrofuran-2-yl]methyl]04-methyl (4R)-2-oxooxazolidine-3,4-dicarboxylate], the half-life at 2 μM is 1.39 h in “in vitro [1]” and 4.26 h in the data set “in vitro [7]”. Also, the “STA Human Plasma 37” value in data set [2] was 77.22. For the same molecule, the “DM Caco2 A to B” value in data set [3] came to 0.04. Also, the “DM Caco2 B to A” value in data set [3] was found to be 0.08. The EC50 was 20100 nM in data set [4] and 20.4 µM in data set [5]. In addition, in the data set “in vitro [6]”, the CC50 is more than 50 µM.

For `CC(C)OC(=O)[C@@H](NC(=O)OC[C@H]1O[C@@](C#N)(c2ccc3c(N)ncnn23)[C@H](O)[C@@H]1O)C(C)C` [Compound 7, isopropyl-((((2R,3S,4R,5R)-5-(4-aminopyrrolo[2,1-f][1,2,4]triazin-7-yl)-5-cyano-3,4-dihydroxytetrahydrofuran-2-yl)methoxy)carbonyl)-L-valinate], the half-life at 2 μM is not below 13.2 h in “in vitro [1]” and not below 9.87 h in the data set “in vitro [7]”. The “STA Human Plasma 37” value in data set [2] is 1303.4. Further, the “DM Caco2 A to B” value in data set [3] is listed as 0.115. The “DM Caco2 B to A” value in data set [3] is 6.245. Moreover, the figures for the 50% effective concentration (EC50) in data set [4] and in data set [5] were more than 50000 nM and more than 50 µM, respectively. In addition, the CC50 in the data set “in vitro [6]” is more than 50 µM.

Take `N#C[C@@]1(c2ccc3c(N)ncnn23)O[C@H](COC(=O)N2CCCCCCC2)[C@@H](O)[C@H]1O` [Compound 9, [(2R,3S,4R,5R)-5-(4-aminopyrrolo[2,1-f][1,2,4]triazin-7-yl)-5-cyano-3,4-dihydroxy-tetrahydrofuran-2-yl]methyl azocane-1-carboxylate]: the half-life at 2 μM in the data set “in vitro [1]” was 6.67 h; in “in vitro [7]”, 8.76 h. Besides, in data set [2], the “STA Human Plasma 37” value came to 1584. Also, the “DM Caco2 A to B” value in data set [3] came out at 0.47. Besides, the “DM Caco2 B to A” value in data set [3] is on record as 6.67. Further, the EC50 in data set [4] is 10300 nM; in data set [5], more than 50 µM. In “in vitro [6]”, this molecule registered a CC50 of more than 50 µM.

As to `CCOC(=O)c1cccn1C(=O)OC[C@H]1O[C@@](C#N)(c2ccc3c(N)ncnn23)[C@H](O)[C@@H]1O` [Compound 10, O1-[[(2R,3S,4R,5R)-5-(4-aminopyrrolo[2,1-f][1,2,4]triazin-7-yl)-5-cyano-3,4-dihydroxy-tetrahydrofuran-2-yl]methyl]O2-ethyl pyrrole-1,2-dicarboxylate], the half-life at 2 μM in “in vitro [1]” was determined as 0.0285 h; in the data set “in vitro [7]”, 0.0767 h. For the same molecule, the “STA Human Plasma 37” value in data set [2] is 68.966. Also, the “DM Caco2 A to B” value in data set [3] stood at 0.22. Also, the “DM Caco2 B to A” value in data set [3] stood at 5.54. In addition, the EC50 in data set [4] amounted to 1520 nM; in data set [5] it was 5.16 µM. The CC50 in the data set “in vitro [6]” is more than 50 µM.

(Values after patent US20250114369A1, “COMPOUNDS AND METHODS FOR TREATMENT OF VIRAL INFECTIONS” (Gilead Sciences, Inc., priority 2023, published 2025).)
